According to patent US12157746B2, “Tetrahydro-1H-pyrazino[2,1-a]isoindolylquinoline compounds for the treatment of autoimmune disease” (F. HOFFMANN-LA ROCHE AG, priority 2018, dated 2024):

Key:
[1] = target: T1, human TLR9 (Homo sapiens, UniProt Q9NR96); experiment: HEK293-Blue-hTLR-9 cells assay; assay type: cell-based; conditions: HEK293-Blue-hTLR9 cells, ODN2006 stimulation, 20 hrs, SEAP reporter; read-out: HEK/hTLR9 IC50
T1 sequence (Q9NR96 26-1032): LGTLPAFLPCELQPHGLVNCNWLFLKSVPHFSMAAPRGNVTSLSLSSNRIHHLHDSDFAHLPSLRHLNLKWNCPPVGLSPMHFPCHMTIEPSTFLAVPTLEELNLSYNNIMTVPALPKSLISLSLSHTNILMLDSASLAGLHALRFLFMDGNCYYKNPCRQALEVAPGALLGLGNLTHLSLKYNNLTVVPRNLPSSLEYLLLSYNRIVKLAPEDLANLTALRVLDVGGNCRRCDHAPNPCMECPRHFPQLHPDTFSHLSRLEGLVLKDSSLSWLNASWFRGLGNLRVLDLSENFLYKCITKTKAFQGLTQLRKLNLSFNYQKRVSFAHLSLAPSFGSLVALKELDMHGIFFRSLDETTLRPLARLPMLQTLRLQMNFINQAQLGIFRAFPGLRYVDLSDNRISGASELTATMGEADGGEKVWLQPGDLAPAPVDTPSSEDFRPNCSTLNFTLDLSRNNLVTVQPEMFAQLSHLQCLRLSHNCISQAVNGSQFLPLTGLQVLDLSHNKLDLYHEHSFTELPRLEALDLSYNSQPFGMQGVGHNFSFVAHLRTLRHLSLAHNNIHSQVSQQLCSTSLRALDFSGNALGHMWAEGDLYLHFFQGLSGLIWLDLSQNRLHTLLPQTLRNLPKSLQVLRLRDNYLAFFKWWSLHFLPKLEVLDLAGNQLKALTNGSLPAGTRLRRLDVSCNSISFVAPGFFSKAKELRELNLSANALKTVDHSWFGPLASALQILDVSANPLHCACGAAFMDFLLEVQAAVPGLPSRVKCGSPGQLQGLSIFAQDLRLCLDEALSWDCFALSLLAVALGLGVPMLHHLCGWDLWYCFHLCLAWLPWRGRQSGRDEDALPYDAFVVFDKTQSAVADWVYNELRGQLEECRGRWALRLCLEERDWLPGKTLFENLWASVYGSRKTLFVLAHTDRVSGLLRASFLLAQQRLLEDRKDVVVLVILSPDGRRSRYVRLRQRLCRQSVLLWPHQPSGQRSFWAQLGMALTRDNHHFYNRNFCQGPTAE
Outline: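 Antagonist mode in HEK293-Blue hTLR9 reporter cells (SEAP under NF-κB/AP-1 sites), stimulated with ODN2006 added from a 20 uM solution. Serially diluted compound (1% DMSO final) was incubated 20 hrs at 37° C. Supernatant SEAP was developed with QUANTI-Blue for 2 h at 37° C and read at 620˜655 nm.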

[2] = Human microsomal stability assay; assay type: in vitro ADME; conditions: human liver microsomes 0.5 mg/mL, 37° C., pH 7.4, NADPH regenerating system, 0-30 minutes
Outline: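 Human liver microsomes (0.5 mg/mL) with […] compound in 100 mM potassium phosphate, pH 7.4, 37° C; reaction started with NADPH regenerating system after 10 min preincubation. Parent remaining at 0–30 min quantified by LC-MS/MS; clearance binned low (<7.0), medium (7.0-16.2) or high (16.2-23.2) mL/min/kg.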

Structure (SMILES)	IC50 [1] [nM]	CL (h) [2] [mL/min/kg]
C[C@H]1CN(c2ccc(C#N)c3ncccc23)C[C@H]2c3ccc(N4CCNCC4)cc3CN12 [Example 2, 5-[(4S,10bR)-4-methyl-8-piperazin-1-yl-3,4,6,10b-tetrahydro-1H-pyrazino[2,1-a]isoindol-2-yl]quinoline-8-carbonitrile]	125	6.8
N#Cc1ccc(N2CCN3Cc4cc(N5CCNCC5)ccc4C3C2)c2cccnc12 (stereo not drawn) [Example 3, 5-(8-piperazin-1-yl-3,4,6,10b-tetrahydro-1H-pyrazino[2,1-a]isoindol-2-yl)quinoline-8-carbonitrile]	87.7	6.2
C[C@@H]1CN(c2ccc(C#N)c3ncccc23)C[C@@H]2c3ccc(N[C@@H]4CCCNC4)cc3CN12 [Example 65, 5-[(4R,10bS)-4-methyl-8-[[(3R)-3-piperidyl]amino]-3,4,6,10b-tetrahydro-1H-pyrazino[2,1-a]isoindol-2-yl]quinoline-8-carbonitrile]	95.8	6.2
C[C@@H]1CN(c2ccc(C#N)c3ncccc23)C[C@@H]2c3ccc(NCCN4CC[C@H](O)C4)cc3CN12 [Example 68, 5-[(4R,10bS)-8-[2-[(3S)-3-hydroxypyrrolidin-1-yl]ethylamino]-4-methyl-3,4,6,10b-tetrahydro-1H-pyrazino[2,1-a]isoindol-2-yl]quinoline-8-carbonitrile]	73.5	7.9
C[C@@H]1CN(c2ccc(C#N)c3ncccc23)C[C@@H]2c3ccc(NCC4(F)CNC4)cc3CN12 [Example 69, 5-[(4R,10bS)-8-[(3-fluoroazetidin-3-yl)methylamino]-4-methyl-3,4,6,10b-tetrahydro-1H-pyrazino[2,1-a]isoindol-2-yl]quinoline-8-carbonitrile]	171	8.4
C[C@@H]1CN(c2ccc(C#N)c3ncccc23)C[C@@H]2c3cc(F)c(N4CC5CNCC(C4)O5)cc3CN12 [Example 85, 5-[(4R,10bS)-9-fluoro-4-methyl-8-(9-oxa-3,7-diazabicyclo[3.3.1]nonan-3-yl)-3,4,6,10b-tetrahydro-1H-pyrazino[2,1-a]isoindol-2-yl]quinoline-8-carbonitrile]	151	7.8
C[C@@H]1CN(c2ccc(C#N)c3ncccc23)C[C@@H]2c3ccc(C(=O)N4CCC(C)(N)CC4)cc3CN12 [Example 88, 5-[(4R,10bS)-8-(4-amino-4-methyl-piperidine-1-carbonyl)-4-methyl-3,4,6,10b-tetrahydro-1H-pyrazino[2,1-a]isoindol-2-yl]quinoline-8-carbonitrile]	165	6.2

Next, values leading:

IC50 [1] [nM]	CL (h) [2] [mL/min/kg]	Structure (SMILES)
113	7.4	CO[C@@H]1CNC[C@@H]1Nc1ccc2c(c1)CN1[C@H](C)CN(c3ccc(C#N)c4ncccc34)C[C@H]21 [Example 60, 5-[(4R,10bS)-8-[[(3S,4R)-4-methoxypyrrolidin-3-yl]amino]-4-methyl-3,4,6,10b-tetrahydro-1H-pyrazino[2,1-a]isoindol-2-yl]quinoline-8-carbonitrile]
93	7.3	CO[C@H]1CNC[C@H]1Nc1ccc2c(c1)CN1[C@H](C)CN(c3ccc(C#N)c4ncccc34)C[C@H]21 [Example 61, 5-[(4R,10bS)-8-[[(3R,4S)-4-methoxypyrrolidin-3-yl]amino]-4-methyl-3,4,6,10b-tetrahydro-1H-pyrazino[2,1-a]isoindol-2-yl]quinoline-8-carbonitrile]
84.5	7.5	CO[C@H]1CNC[C@@H]1Nc1ccc2c(c1)CN1[C@H](C)CN(c3ccc(C#N)c4ncccc34)C[C@H]21 [Example 62, 5-[(4R,10bS)-8-[[(3S,4S)-4-methoxypyrrolidin-3-yl]amino]-4-methyl-3,4,6,10b-tetrahydro-1H-pyrazino[2,1-a]isoindol-2-yl]quinoline-8-carbonitrile]
203	6.2	Cc1ccc(N2C[C@@H](C)N3Cc4cc(N[C@H]5CNC[C@H]5F)ccc4[C@H]3C2)c2cccnc12 [Example 75, (4R,10bS)—N-[(3S,4R)-4-fluoropyrrolidin-3-yl]-4-methyl-2-(8-methyl-5-quinolyl)-3,4,6,10b-tetrahydro-1H-pyrazino[2,1-a]isoindol-8-amine]
113	6.2	C[C@@H]1CN(c2ccc(Cl)c3ncccc23)C[C@@H]2c3ccc(N[C@H]4CNC[C@H]4F)cc3CN12 [Example 79, (4R,10b)-2-(8-chloro-5-quinolyl)-N-[(3S,4R)-4-fluoropyrrolidin-3-yl]-4-methyl-3,4,6,10b-tetrahydro-1H-pyrazino[2,1-a]isoindol-8-amine]
